{"source": "patent US12616193B2", "about": "“5-(1H-indol-3-yl)-oxazole, -oxadiazole and -furan derivatives as enhancers of sperm motility” (SPERMATECH AS, priority 2020, dated 2026)", "key": {"Human T-cells": {"system": "Human T-cells", "test": "Genotoxicity, comet assay (Example 4)", "type": "cell-based", "method": "Human T-cells (four concentrations of Compound No. 1 including 0 μM; two exposure times) were embedded in 1% agarose, lysed in cold 2.5 M NaCl, 0.1 M EDTA, 10 mM Tris buffer, and 1% Triton X-100, pH 10. Incubation with dithiothreitol and lithium diiodosalicylate was followed by incubation in cold 0.3M NaOH, and 1 mM EDTA for 20 min and then electrophoresis at 0.8 V/cm for 20 min in a cold room. After neutralization with PBS, and staining with SYBRGold (Invitrogen), slides were scored using the Comet Assay IV image analysis programme (Perceptive Instruments)."}, "boar sperm [1]": {"system": "boar sperm", "test": "Determination of boar sperm motility and progressive motility by CASA (Example 1)", "type": "cell-based, Duroc boar", "settings": "for pEC50: 0.2 h, 12 min at 37° C., activation-% relative to DMSO-only control", "method": "Duroc boar sperm samples were received from Norsvin AS and contained pooled semen from three individual boars. Semen samples were stored in Androstar® extender (mini-tube) at 18° C. prior to use. Compound No. 1 was tested in duplicates, using 2-fold serial dilutions including 10 individual concentrations starting from 100 μM. 995 μL semen were aliquoted in Eppendorf tubes and 5 μL of Compound No. 1 diluted in DMSO were added leading to the described final concentrations. The resulting semen samples were mixed gently and incubated for 12 min at 37° C. in a water bath. Subsequently, 10 μL of each semen sample was added to a counting chamber slide (Leja) and incubated on a plate incubator at 37° C. Sperm motility, progressive motility and curvilinear velocity were determined using a CASA (Hamilton Thorne), starting from 14 min. For each chamber A and B 15 individual frames were analysed and motility as well as progressive motility data was read out. The data were converted into activation-% using DMSO-only controls (set to 100% activity) by determining the percental increase of either motility or progressive motility relative to the control sample without added Compound No. 1. For the determination of EC50 values, data were fitted using Prism8 (non-linear fit, absolute IC50, x is concentration, graphpad.com)."}, "boar sperm [2]": {"system": "boar sperm", "test": "Effect of long-term storage at 18° C. on boar sperm, activator freshly added (Example 2)", "type": "cell-based", "method": "The effect of Compound No. 1 (“activator”) on the shelf-life of boar sperm was evaluated. Compound No. 1 was freshly added to stored boar sperm aliquots. The sperm samples were stored as aliquots in Eppendorf tubes (995 μl) at 18° C. During the course of one week 5 μl 10 mM activator solution in DMSO (50 μM final concentration) was added to one aliquot and the resulting solution was incubated in a water bath at for 12 min at 37° C. Subsequently, 10 μl semen samples were taken out and added to a counting chamber slide, incubated for 2 min at 37° C. and analysed as described in Example 1."}, "[3]": {"system": "mice oocytes contacted with mice sperm cells", "test": "In vitro fertilization, mouse (Example 3)", "type": "cell-based", "method": "In vitro fertilization (IVF) studies were conducted to determine whether the activator compound No. 1 has any adverse effects on the fertilization process. Male mice were sacrificed, and the epididymis was opened to release the sperm into the appropriate buffer in a petri dish. The sperm cells were incubated with 50 μM of the activator compound for one hour before an aliquot was transferred to a petri dish containing oocytes. The cells were further incubated at 37° C. and 1-cell/2-cell eggs were counted after 24 hours. The experiment was performed in duplicates using sperm from the same epididymis and oocytes from two different mice."}, "sows [4]": {"system": "sows", "test": "Field trial pilot study, artificial insemination of sows (Example 5)", "type": "in vivo, pig", "method": "A pilot field study included 27 sows of which 13 received untreated control sperm and 14 received sperm treated with Compound No. 1 (“activator”). Insemination doses were collected from the same animals during the course of the experiment and contained pooled semen from three individual boars. 45 μl 100 mM activator solution in DMSO was added to 89 ml boar sperm (final concentration of 50 μM) directly before insemination which was carried out within 15 to 45 min. The sperm was transferred to an insemination bottle and then the activator was added. After placing the insemination catheter into the cervix of the sow, the bottle was connected, and the sperm sample was released into the sow. The sows received insemination doses on two subsequent days. After 30 to 35 days the animals were sacrificed, the uteri were removed and embryos were counted for all […]. Organ material from 5 activator-receiving sows and 5 sows from the control group were optically inspected and samples from the uterus, cervix and vagina were formalin-fixated for histology examination. […] The formalin preparations were cut and stained with hematoxylin eosin for histological examination. The histopathological assessment included a thorough evaluation of the epithelium of the mucosa and the underlying lamina propria. In both the epithelium and lamina propria, particular emphasis was placed on acute changes. In the epithelium, the acute changes included single cell necrosis/apoptosis and infiltration of polymorphonuclear leukocytes. In the lamina propria, infiltration of polymorphonuclear leukocytes was considered as the most important acute change. […] Infiltration of lymphocytes in the epithelium and lamina propria was considered to be within the normal range of all individuals. Flattening and possibly loss of surface epithelium were partly difficult to assess. Edema and bleeding in the lamina propria were detected in several individuals. Heat and age are the denominators of leukocyte infiltration in sows and are considered normal. The average number of embryos was determined for the sows of the control group (n=11, 11 sows were in pig after insemination) and the activator-receiving group (n=13, 13 sows in pig after insemination)."}, "sows [5]": {"system": "sows", "test": "Field trial study, 441 sows (Example 6)", "type": "in vivo, pig", "source_text": "Following the success of the pilot study reported in Example 5, a larger field trial study was conducting which included 441 sows. 224 sows received untreated control sperm and 217 received sperm treated with Compound No. 1 (“activator”)."}, "[6]": {"settings": "50 μM added to boar sperm stored at 18° C. for 1 to 8 days, FIG. 2"}, "[7]": {"settings": "217 sows with treated sperm vs 224 sows with untreated control sperm"}}, "note": "pEC50: −log10 of the molar value. Read-outs that look alike come from different tables or passages of the source.", "data": [{"smiles": "OO", "note": "[H2O2, reference compound]", "values": [{"measurement": "% Tail DNA", "setting": "Human T-cells; Control+ treatment", "value": 75.4, "unit": "%"}]}, {"smiles": "O=C(CSc1nnc(-c2c[nH]c3ccccc23)o1)Nc1ccc2c(c1)OCO2", "note": "[Compound No. 1]", "values": [{"measurement": "pEC50", "setting": "boar sperm [1]; n=6, read-out: Absolute EC50 motility", "value": 5.48}, {"measurement": "pEC50", "setting": "boar sperm [1]; n=6, read-out: absolute EC50 progressive motility", "value": 4.95}, {"measurement": "motility", "setting": "boar sperm [1]; FIG. 1B, n=4, up to 100 μM", "value": "increases both motility and progressive motility in a dose-dependent manner"}, {"measurement": "progressive motility", "setting": "boar sperm [1]; FIG. 1B, n=4, up to 100 μM", "value": "increases both motility and progressive motility in a dose-dependent manner"}, {"measurement": "motility of stored sperm samples", "setting": "boar sperm [2]; [6]", "value": "increases motility and progressive motility, even after 7 days of storage"}, {"measurement": "progressive motility of stored sperm samples", "setting": "boar sperm [2]; [6]", "value": "increases motility and progressive motility, even after 7 days of storage"}, {"measurement": "boar sperm shelf life", "setting": "boar sperm [2]; 50 μM, storage at 18° C.", "value": "has a positive impact on boar sperm shelf life"}, {"measurement": "interference with the fertilization process", "setting": "[3]; 50 μM, mouse IVF", "value": "does not interfere with the fertilization process"}, {"measurement": "fertility rates vs control", "setting": "[3]; mouse sperm incubated with 50 μM for one hour, eggs counted after 24 hours", "value": "comparable to the control samples"}, {"measurement": "% Tail DNA", "setting": "Human T-cells; 0.5 hr exposure, 5 μM", "value": 0.2, "unit": "%"}, {"measurement": "% Tail DNA", "setting": "Human T-cells; 0.5 hr exposure, 50 μM", "value": 0.6, "unit": "%"}, {"measurement": "% Tail DNA", "setting": "Human T-cells; 0.5 hr exposure, 500 μM", "value": 0.4, "unit": "%"}, {"measurement": "% Tail DNA", "setting": "Human T-cells; 3 hr exposure, 5 μM", "value": 0.5, "unit": "%"}, {"measurement": "% Tail DNA", "setting": "Human T-cells; 3 hr exposure, 50 μM", "value": 0.1, "unit": "%"}, {"measurement": "% Tail DNA", "setting": "Human T-cells; 3 hr exposure, 500 μM", "value": 0.2, "unit": "%"}, {"measurement": "genotoxic effects", "setting": "Human T-cells; up to 500 μM, 0.5 and 3 hr exposure", "value": "No genotoxic effects"}, {"measurement": "optical inspection of organ material (cervix, uteri, vaginae)", "setting": "sows [4]; 5 activator-receiving sows, 30 to 35 days after insemination with sperm treated at 50 μM", "value": "mostly normal mucosa and no signs of lesions"}, {"measurement": "sows in pig after insemination", "setting": "sows [4]; of 14 sows receiving sperm treated at 50 μM (control 11 of 13)", "value": 13}, {"measurement": "sows with abundant infiltration of polymorphonuclear leukocytes mostly in the cervix and uterus", "setting": "sows [4]; of five sows in the activator group (control: one sow), histology", "value": "Three of the five sows"}, {"measurement": "sows with necrosis/apoptosis detected", "setting": "sows [4]; of five sows in the activator-receiving group (control: one), histology", "value": "one of the sows"}, {"measurement": "pregnancy rates in the sows", "setting": "sows [4]; sperm treated at 50 μM vs untreated control sperm", "value": "increase pregnancy rates"}, {"measurement": "average increase of embryos per sow", "setting": "sows [4]; vs control group, embryos counted after 30 to 35 days, FIG. 5", "value": 2, "unit": "embryos per sows"}, {"measurement": "average increase in live piglets born per sow", "setting": "sows [5]; [7]", "value": "~1", "unit": "live piglet born per sow"}, {"measurement": "increase in pregnancy rate", "setting": "sows [5]; [7]", "value": 5, "unit": "%"}, {"measurement": "weaning to service interval (WSI)", "setting": "sows [5]; treated vs untreated control sperm", "value": "improved the weaning to service interval"}]}]}
